Entries after “also recorded” stand apart in the source; their conditions may differ.
How the values were obtained:
[1] = biological target: Keap1-Nrf2 PPI (Keap1 Kelch domain / FITC-9mer Nrf2 peptide amide) (Homo sapiens, UniProt Q14145); assay: Fluorescence polarization; settings: FP assay, triplicates
[2] = tested on: Nrf2 target genes GSTM3, HMOX1, NQO1 in NCM460D cells; assay: Expression of Nrf2-ARE regulated genes by RT-qPCR in NCM460D cells; type: cell-based; settings: NCM460D cells, 100, 10 and 1 μM, 24 h, RT-PCR

Keap1-Nrf2 PPI (Keap1 Kelch domain / FITC-9mer Nrf2 peptide amide), sequence (Q14145 321-609 limits assumed): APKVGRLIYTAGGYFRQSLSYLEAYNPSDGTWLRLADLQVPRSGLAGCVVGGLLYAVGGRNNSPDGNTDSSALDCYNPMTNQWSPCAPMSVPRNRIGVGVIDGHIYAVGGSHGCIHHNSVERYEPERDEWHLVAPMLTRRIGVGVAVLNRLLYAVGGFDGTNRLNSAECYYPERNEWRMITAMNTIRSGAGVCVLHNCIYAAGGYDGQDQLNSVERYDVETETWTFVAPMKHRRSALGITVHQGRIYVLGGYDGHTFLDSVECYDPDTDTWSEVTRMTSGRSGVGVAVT

SMILES | inhibition at 5 µM [1] | transcription (mRNA levels) of Nrf2 target genes GSTM3, HMOX1 and NQO1 [2]
COc1ccc(S(=O)(=O)N(CC(=O)O)c2ccc(N(CC(=O)O)S(=O)(=O)c3ccc(OC)cc3)c(N3CCCCC3)c2)cc1 [7b, 2-(Piperidin-1-yl)-1,4-bis(4-methoxyphenylsulfonamido)benzene-N,N'-diacetic acid] | ~50% | –
Cc1ccc(S(=O)(=O)N(CC(=O)O)c2cc(OCc3ccc(F)cc3)c(N(CC(=O)O)S(=O)(=O)c3ccc(C)cc3)c3ccccc23)cc1 [12d, 2-(4-Fluorobenzyloxy)-1,4-bis(4-methylphenylsulfonamido)naphthalene-N,N'-diacetic acid] | – | significantly increased; also recorded: effectively stimulate transcription
Cc1ccc(S(=O)(=O)N(CC(=O)O)c2ccc(N(CC(=O)O)S(=O)(=O)c3ccc(C)cc3)c(OCc3ccc(F)cc3)c2)cc1 [7v, 2-(4-Fluorobenzyloxy)-1,4-bis(4-methylphenylsulfonamido)benzene-N,N'-diacetic acid] | – | no effects

Source: paper PMC10265587 (European journal of medicinal chemistry, 2022)
